From patent US8076338B2, “Kinase modulators and methods of use” (Exelixis, Inc., priority 2004, dated 2011)
Like-named read-outs stand apart in the source and are kept apart here.

Assays:
[1] = target: p70S6K (Homo sapiens, UniProt P23443); test: Luciferase-coupled chemiluminescence kinase assay (ATP consumption); type: biochemical
How it was run: (§1)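 Enzyme at 2.5-5 nM was preincubated 30 min at room temperature with compound in Tris pH 7.5, MgCl2, TX-100, DTT, then reacted with ATP for 3 h at ambient temperature. Remaining ATP was quantified by luciferase-luciferin chemiluminescence, with consumption kept at 25-60%; […].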

[2] = target: AktK (Homo sapiens, UniProt P31749); test: as above; type: biochemical; details: read-out: AKT-1 IC50
How it was run: as §1

p70S6K, sequence (P23443 whole entry): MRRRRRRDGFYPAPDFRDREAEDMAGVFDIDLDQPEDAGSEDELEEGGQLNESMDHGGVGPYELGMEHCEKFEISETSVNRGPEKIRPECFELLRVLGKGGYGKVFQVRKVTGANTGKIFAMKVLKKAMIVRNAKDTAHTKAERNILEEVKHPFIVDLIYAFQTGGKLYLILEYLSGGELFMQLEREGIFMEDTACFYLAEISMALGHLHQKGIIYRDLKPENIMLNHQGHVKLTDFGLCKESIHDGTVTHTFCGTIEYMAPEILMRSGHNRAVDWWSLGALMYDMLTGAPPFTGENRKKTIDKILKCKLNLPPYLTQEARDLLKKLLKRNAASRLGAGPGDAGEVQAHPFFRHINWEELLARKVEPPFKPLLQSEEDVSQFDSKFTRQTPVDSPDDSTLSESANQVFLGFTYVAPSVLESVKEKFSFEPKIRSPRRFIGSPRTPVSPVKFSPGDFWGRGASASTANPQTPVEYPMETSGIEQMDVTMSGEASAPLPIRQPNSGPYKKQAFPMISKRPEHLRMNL
AktK, sequence (P31749 whole entry): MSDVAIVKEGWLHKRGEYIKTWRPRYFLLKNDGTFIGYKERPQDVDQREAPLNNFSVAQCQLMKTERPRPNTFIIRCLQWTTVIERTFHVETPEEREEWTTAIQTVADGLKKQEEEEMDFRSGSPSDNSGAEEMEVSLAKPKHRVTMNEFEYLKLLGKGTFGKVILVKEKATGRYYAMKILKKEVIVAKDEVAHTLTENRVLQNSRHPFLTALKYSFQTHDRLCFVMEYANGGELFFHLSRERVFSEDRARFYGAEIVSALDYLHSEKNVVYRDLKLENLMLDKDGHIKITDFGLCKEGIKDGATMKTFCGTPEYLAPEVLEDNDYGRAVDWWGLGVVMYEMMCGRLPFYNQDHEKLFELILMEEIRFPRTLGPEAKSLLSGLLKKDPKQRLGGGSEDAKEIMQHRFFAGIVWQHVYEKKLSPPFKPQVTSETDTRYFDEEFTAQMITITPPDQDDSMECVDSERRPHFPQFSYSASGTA

| Compound | IC50 ([1]; Table 1, class symbols per key) [µM] | IC50 ([2]; Table 1, class symbols per key) [µM] | IC50 [1] [µM] | IC50 [2] [µM] |
| --- | --- | --- | --- | --- |
| Cc1c(NCCN2CCCC2)cc(C(=O)C2CC2)cc1N1CCN(c2ncnc3[nH]nc(Br)c23)CC1 [Entry 275, {3-[4-(3-bromo-1H-pyrazolo[3,4-d]pyrimidin-4-yl)piperazin-1-yl]-4-methyl-5-[(2-pyrrolidin-1-ylethyl)amino]phenyl}(cyclopropyl)methanone] | < 0.1 | < 0.1 |  |  |
| FC(F)(F)c1cccc(N2CCN(c3ncnc4[nH]ccc34)CC2)c1 [Entry 305, 4-{4-[3-(trifluoromethyl)phenyl]piperazin-1-yl}-7H-pyrrolo[2,3-d]pyrimidine] |  |  | 0.1 to 1 | ≥ 10 |
| CCc1n[nH]c2ncnc(N3CCN(c4cc(Cl)cc(OCCN(C)C)c4OC)CC3)c12 [Entry 384, 2-{[5-chloro-3-[4-(3-ethyl-1H-pyrazolo[3,4-d]pyrimidin-4-yl)piperazin-1-yl]-2-(methyloxy)phenyl]oxy}-N,N-dimethylethanamine] |  |  | < 0.1 | 1 to 10 |
| CCc1n[nH]c2ncnc(N3CCN(c4cc(F)ccc4F)CC3)c12 [Entry 132, 4-[4-(2,5-difluorophenyl)piperazin-1-yl]-3-ethyl-1H-pyrazolo[3,4-d]pyrimidine] | 0.1 to 1 | ≥ 10 |  |  |
| Cc1c(NCCN2CCCC2)cc(C(=O)NC(C)(C)C)cc1N1CCN(c2ncnc3[nH]nc(Br)c23)CC1 [Entry 214, 3-[4-(3-bromo-1H-pyrazolo[3,4-d]pyrimidin-4-yl)piperazin-1-yl]-N-(1,1-dimethylethyl)-4-methyl-5-[(2-pyrrolidin-1-ylethyl)amino]benzamide] | < 0.1 | < 0.1 |  |  |
| CCc1n[nH]c2ncnc(N3CCN(c4cc(Cl)c(OC)cc4C)CC3)c12 [Entry 390, 4-{4-[5-chloro-2-methyl-4-(methyloxy)phenyl]piperazin-1-yl}-3-ethyl-1H-pyrazolo[3,4-d]pyrimidine] |  |  | < 0.1 | 1 to 10 |
| c1ccc(N2CCN(c3ncnc4[nH]cnc34)CC2)cc1 [Entry 293, 6-(4-phenylpiperazin-1-yl)-9H-purine] |  |  | 1 to 10 | ≥ 10 |
| CCc1nc(N2CCN(c3cc(Cl)ccc3C)CC2)c2cn[nH]c2n1 [Entry 325, 4-[4-(5-chloro-2-methylphenyl)piperazin-1-yl]-6-ethyl-1H-pyrazolo[3,4-d]pyrimidine] |  |  | 1 to 10 | 1 to 10 |
| O=[N+]([O-])c1ccccc1N1CCN(c2ncnc3[nH]nc(Br)c23)CC1 [Entry 121, 3-bromo-4-[4-(2-nitrophenyl)piperazin-1-yl]-1H-pyrazolo[3,4-d]pyrimidine] | 0.1 to 1 | ≥ 10 |  |  |
| CCc1n[nH]c2ncnc(N3CCN(c4cc(Cl)cc(OCCN(CC)CC)c4)CC3)c12 [Entry 170, 2-({3-chloro-5-[4-(3-ethyl-1H-pyrazolo[3,4-d]pyrimidin-4-yl)piperazin-1-yl]phenyl}oxy)-N,N-diethylethanamine] | 0.1 to 1 | ≥ 10 |  |  |
| CCOCc1cc(NCCN2CCCC2)c(C)c(N2CCN(c3ncnc4[nH]nc(Br)c34)CC2)c1 [Entry 272, 3-[4-(3-bromo-1H-pyrazolo[3,4-d]pyrimidin-4-yl)piperazin-1-yl]-5-[(ethyloxy)methyl]-2-methyl-N-(2-pyrrolidin-1-ylethyl)aniline] | < 0.1 | < 0.1 |  |  |
| 3-bromo-4-(4-{4-methyl-3′-[(2-pyrrolidin-1-yl-ethyl)oxy]biphenyl-3-yl}piperazin-1-yl)-1H-pyrazolo[3,4-d]pyrimidine [Entry 290] |  |  | < 0.1 | < 0.1 |
| Cc1ccc(Cl)cc1N1CCN(c2ncnc3[nH]nc(-c4cccc(OCc5ccccc5)c4)c23)CC1 [Entry 336, 4-[4-(5-chloro-2-methylphenyl)piperazin-1-yl]-3-{3-[(phenylmethyl)oxy]phenyl}-1H-pyrazolo[3,4-d]pyrimidine] |  |  | 1 to 10 | 1 to 10 |
| Cc1c(NCCN2CCCC2)cc(C(=O)N2CCCC2)cc1N1CCN(c2ncnc3[nH]nc(Br)c23)CC1 [Entry 201, 3-[4-(3-bromo-1H-pyrazolo[3,4-d]pyrimidin-4-yl)piperazin-1-yl]-2-methyl-5-(pyrrolidin-1-ylcarbonyl)-N-(2-pyrrolidin-1-ylethyl)aniline] | < 0.1 | 0.1 to 1 |  |  |
| FC(F)(F)c1ccc(N2CCN(c3ncnc4[nH]nc(Br)c34)CC2)cc1 [Entry 124, 3-bromo-4-{4-[4-(trifluoromethyl)phenyl]piperazin-1-yl}-1H-pyrazolo[3,4-d]pyrimidine] | 0.1 to 1 | ≥ 10 |  |  |
| Cc1c(OCCCN2CCCC2)cc(Cl)cc1N1CCN(c2ncnc3[nH]nc(C(F)(F)F)c23)CC1 [Entry 68, 4-(4-{5-chloro-2-methyl-3-[(3-pyrrolidin-1-ylpropyl)oxy]phenyl}piperazin-1-yl)-3-(trifluoromethyl)-1H-pyrazolo[3,4-d]pyrimidine] | < 0.1 | 0.1 to 1 |  |  |

| Compound | IC50 ([1]; Table 1, class symbols per key) [µM] | IC50 ([2]; Table 1, class symbols per key) [µM] | IC50 [1] [µM] | IC50 [2] [µM] |
| --- | --- | --- | --- | --- |
| Cc1c(CCCN2CCN(C)CC2)cc(Cl)cc1N1CCN(c2ncnc3[nH]nc(Br)c23)CC1 [Entry 19, 3-bromo-4-(4-{5-chloro-2-methyl-3-[3-(4-methylpiperazin-1-yl)propyl]phenyl}piperazin-1-yl)-1H-pyrazolo[3,4-d]pyrimidine] | < 0.1 | < 0.1 |  |  |
| Cc1ccc(Cl)cc1N1CCN(c2ncnc3[nH]nc(-c4ccc(OCCN5CCOCC5)cc4)c23)CC1 [Entry 373, 4-[4-(5-chloro-2-methylphenyl)piperazin-1-yl]-3-{4-[(2-morpholin-4-ylethyl)oxy]phenyl}-1H-pyrazolo[3,4-d]pyrimidine] |  |  | 1 to 10 | 1 to 10 |
| Cc1ccc(Cl)cc1N1CCN(c2ncnc3[nH]nc(Br)c23)C[C@H]1C [Entry 176, 3-bromo-4-[(3R)-4-(5-chloro-2-methylphenyl)-3-methylpiperazin-1-yl]-1H-pyrazolo[3,4-d]pyrimidine] | 0.1 to 1 | ≥ 10 |  |  |
| COC(=O)c1cc(Br)c(C)c(N2CCN(c3ncnc4[nH]nc(Br)c34)CC2)c1 [Entry 186, methyl 3-bromo-5-[4-(3-bromo-1H-pyrazolo[3,4-d]pyrimidin-4-yl)piperazin-1-yl]-4-methylbenzoate] | < 0.1 | 0.1 to 1 |  |  |
| CCS(=O)(=O)c1cc(NCCN2CCCC2)c(C)c(N2CCN(c3ncnc4[nH]nc(Br)c34)CC2)c1 [Entry 260, 3-[4-(3-bromo-1H-pyrazolo[3,4-d]pyrimidin-4-yl)piperazin-1-yl]-5-(ethylsulfonyl)-2-methyl-N-(2-pyrrolidin-1-ylethyl)aniline] | < 0.1 | < 0.1 |  |  |
| CC(=O)c1cc(NCCN2CCCC2)c(C)c(N2CCN(c3ncnc4[nH]nc(Br)c34)CC2)c1 [Entry 252, 1-{3-[4-(3-bromo-1H-pyrazolo[3,4-d]pyrimidin-4-yl)piperazin-1-yl]-4-methyl-5-[(2-pyrrolidin-1-ylethyl)amino]phenyl}ethanone] | < 0.1 | < 0.1 |  |  |
| CCNC(=O)c1cc(NCCN2CCCC2)c(C)c(N2CCN(c3ncnc4[nH]nc(Br)c34)CC2)c1 [Entry 219, 3-[4-(3-bromo-1H-pyrazolo[3,4-d]pyrimidin-4-yl)piperazin-1-yl]-N-ethyl-4-methyl-5-[(2-pyrrolidin-1-ylethyl)amino]benzamide] | < 0.1 | < 0.1 |  |  |
| CCc1n[nH]c2ncnc(N3CCN(c4cccc(Cl)c4)C(C(=O)NC)C3)c12 (stereo not shown) [Entry 353, 1-(3-chlorophenyl)-4-(3-ethyl-1H-pyrazolo[3,4-d]pyrimidin-4-yl)-N-methylpiperazine-2-carboxamide] |  |  | 0.1 to 1 | 1 to 10 |
| FC(F)(F)c1ccnc(N2CCN(c3ncnc4[nH]nc(Br)c34)CC2)c1 [Entry 117, 3-bromo-4-{4-[4-(trifluoromethyl)pyridin-2-yl]piperazin-1-yl}-1H-pyrazolo[3,4-d]pyrimidine] | 0.1 to 1 | ≥ 10 |  |  |
| CCc1n[nH]c2ncnc(N3CCN(c4cc(OCc5ccccc5)cc(NCCN5CCCC5)c4C)CC3)c12 [Entry 174, 3-[4-(3-ethyl-1H-pyrazolo[3,4-d]pyrimidin-4-yl)piperazin-1-yl]-2-methyl-5-[(phenylmethyl)oxy]-N-(2-pyrrolidin-1-ylethyl)aniline] | < 0.1 | 0.1 to 1 |  |  |
| 3-[4-(3-bromo-1H-pyrazolo[3,4-d]pyrimidin-4-yl)piperazin-1-yl]-5-{[(difluoromethyl)oxy]meth-yl}-2-methyl-N-(2-pyrrolidin-1-ylethyl)aniline [Entry 254] | < 0.1 | < 0.1 |  |  |
| Fc1ccc(N2CCN(c3ncnc4[nH]ccc34)CC2)cc1 [Entry 312, 4-[4-(4-fluorophenyl)piperazin-1-yl]-7H-pyrrolo[2,3-d]pyrimidine] |  |  | 0.1 to 1 | ≥ 10 |
| Cc1c(NCCN2CCCC2)cc(OCC2CCCC2)cc1N1CCN(c2ncnc3[nH]nc(Br)c23)CC1 [Entry 218, 3-[4-(3-bromo-1H-pyrazolo[3,4-d]pyrimidin-4-yl)piperazin-1-yl]-5-[(cyclopentylmethyl)oxy]-2-methyl-N-(2-pyrrolidin-1-ylethyl)aniline] | < 0.1 | < 0.1 |  |  |
| Cc1c(OCCN2CCCC2)cc(Cl)cc1N1CCN(c2ncnc3[nH]nc(C(C)C)c23)CC1 [Entry 137, 4-(4-{5-chloro-2-methyl-3-[(2-pyrrolidin-1-ylethyl)oxy]phenyl}piperazin-1-yl)-3-(1-methylethyl)-1H-pyrazolo[3,4-d]pyrimidine] | < 0.1 | 1 to 10 |  |  |
| Cc1c(NCCN2CCCC2)cc(F)cc1N1CCN(c2ncnc3[nH]nc(Br)c23)CC1 [Entry 58, 3-[4-(3-bromo-1H-pyrazolo[3,4-d]pyrimidin-4-yl)piperazin-1-yl]-5-fluoro-2-methyl-N-(2-pyrrolidin-1-ylethyl)aniline] | < 0.1 | 0.1 to 1 |  |  |
| CCc1n[nH]c2ncnc(N3CCN(c4ccc(OCCN5CCCCC5)c(Cl)c4)CC3)c12 [Entry 350, 4-(4-{3-chloro-4-[(2-piperidin-1-ylethyl)oxy]phe-nyl}piperazin-1-yl)-3-ethyl-1H-pyrazolo[3,4-d]pyrimidine] |  |  | 1 to 10 | ≥ 10 |
